Key:
⅚ nephrectomized rats = experiment: Urine protein excretion in five-sixths nephrectomized (ablation proteinuric) rats; format: in vivo, Sprague Dawley rats; details: for 24-hour urinary excretion of protein, Weeks 9-16: 762 nmoles/kg/day orally for 8 weeks (weeks 9-16 post nephrectomy); for 24-hour urinary excretion of protein, Weeks 9-16 / 24-hour urinary excretion of protein, Weeks 1-8: mean ± SEM; for 24-hour urinary excretion of protein, Weeks 1-8: treatment group in weeks 1-8 post nephrectomy, before treatment started (baseline)
Method: nephrectomy was carried out as described by Morrison (11). Briefly, each animal was anaesthetized with 7% w/v chloral hydrate (0.4 g/kg, i.p.). An incision was made in the ventral abdominal wall to access the kidneys. Right nephrectomy was performed and the cranial and caudal third of the left kidney were cut off. Tissue adhesive (Histoccryl, B. Braun) was used to seal the cut ends of the left kidney and prevent bleeding. In this way 5⁄6 of the renal parenchyma was removed. This model results in focal and segmental glomerulosclerosis, resembling renal lesions in humans like oligomeganephronia, membranous nephropathy, minimal change nephritis, proliferative glomerulonephritis, analgesic nephropathy, diabetes mellitus, unilateral nephrectomy, cortical necrosis, and unilateral renal agenesis (9). Following the operation, each animal was placed in a metabolic cage for 24 hours once a week for a duration of 8 weeks. The 24-hour urine output and the concentration of protein in the urine were measured. After the 8th week, the animals were randomly divided into two groups (8 animals per group). Animals in one of the group (the treatment group) were orally administered 762 nmoles/kg/day of des-Asp-angiotensin I dissolved in 0.5 ml of saline via a 1-ml syringe with a blunted needle for a period of 8 weeks. The dose of 762 nmoles/kg/day was calculated based on the maximum effective oral anti-cardiac hypertrophic dose (250 nmole per rat of average weight of 328 g) in the original parent patent. Animals in the other group (the control group) were similarly administered with 0.5 ml of saline. Weekly measurement of 24-hour urine output and the concentration of protein in the urine in these animals were carried out for another 8 weeks. The protocol was designed based on our preliminary observation that urinary excretion of protein in the 5⁄6 nephrectomized rats commenced to increase above the normal value in 7th to 8th week post nephrectomy. A repeat of the experiment with 12 nephrectomized rats per group was carried out. Data were expressed as mean±SEM. […] The accepted level of significance was p<0.05.

normal rats = experiment: Urine protein excretion in normal rats; format: in vivo, Sprague Dawley rats
From the text: Data were expressed as mean±SEM. […] The accepted level of significance was p<0.05.

## des-Aspartate angiotensin I [des-Asp-angiotensin I]
⅚ nephrectomized rats; Table 2, first experiment, 8 rats, saline control 37.2 ± 2.3, p = 0.024
  24-hour urinary excretion of protein, Weeks 9-16: *28.7 ± 2.5 mg
⅚ nephrectomized rats; Table 2, first experiment, 8 rats
  24-hour urinary excretion of protein, Weeks 1-8: 16.4 ± 1.6 mg
⅚ nephrectomized rats; Table 3, repeat experiment, 12 rats, saline control 51.7 ± 4.7, p = 0.048
  24-hour urinary excretion of protein, Weeks 9-16: *39.6 ± 3.3 mg
⅚ nephrectomized rats; Table 3, repeat experiment, 12 rats
  24-hour urinary excretion of protein, Weeks 1-8: 19.9 ± 1.5 mg
⅚ nephrectomized rats; ablation nephropathic rats, oral dose of 762 nmoles/kg/day
  Anti-proteinuric action (progressive development of proteinuria): effective agent in attenuating the progressive development of proteinuria
Normal rats; Table 4, normal rats, treatment group (762 nmoles/kg/day), 12 rats, mean ± SEM, saline control 18.7 ± 1.8
  24-hour urinary excretion of protein, Weeks 1-8: 16.1 ± 1.7 mg
Normal rats; Table 4, normal rats, treatment group (762 nmoles/kg/day), 12 rats, mean ± SEM, saline control 19.9 ± 2.2
  24-hour urinary excretion of protein, Weeks 9-16: 17.8 ± 1.1 mg
Normal rats; normal rats, oral dose of 762 nmoles/kg/day
  Effect on urinary excretion of protein in normal rats: no effect

From patent US7553928B2, “Use of des-Aspartate-angiotensin I as an agent for the treatment and prevention of glomerulosclerosis and renal failure” (priority 2000, dated 2009)
